The test system of data set [1] is HepG-2. Description: MTT cytotoxicity assay, HepG-2. As to conditions: Homo sapiens, HepG2, 72 h exposure, mean ± SD. Type of data set: cell-based. As for the experimental part:
(§1) The newly synthesized chalcone compounds 7a–k were evaluated for their in vitro anticancer activity against three cancer cell lines—HCT-116, MCF-7 and HepG-2—according to the MTT assay method using doxorubicin as reference drug.
(§2) The in vitro anticancer activities of the selected chalcone compounds against three cancer cell lines: human colon carcinoma (HCT-116), human hepatocellular carcinoma (HEPG-2), and human breast adenocarcinoma (MCF-7) were evaluated as described with some modifications. Target tumor cells were grown to log phase in DMEM medium supplemented with 10% fetal bovine serum. After diluting to 1 × 10^5 cells mL^−1 with the medium, 100 μL of the obtained cell suspension was added to each well of 96-well culture plates. Subsequently, incubation was performed at 37 °C in 5% CO2 atmosphere for 48 h before the cytotoxicity assessment. Tested samples at preset concentrations were added to 6 wells with doxorubicin being employed as a positive reference. After 72 h exposure period, 25 μL of PBS containing 2.5 mg mL^−1 of MTT was added to each well. After 4 h, the medium was replaced by 150 μL DMSO to dissolve the purple formazan crystals produced. The absorbance at 570 nm of each well was measured with an ELISA plate reader. The data represented the mean of three independent experiments in triplicate and were expressed as means ± SD.
Background: Formazan colour is commonly taken as a measure of viable cells.

The subject of data set [2] is MCF-7. Description: MTT cytotoxicity assay, MCF-7. In kind it is cell-based. As to conditions: Homo sapiens, MCF7, 72 h exposure, mean ± SD. The procedure:
as §1, §2

The test system of data set [3] is HCT-116. Description: MTT cytotoxicity assay, HCT-116. In kind it is cell-based. The conditions noted are these: Homo sapiens, 72 h exposure, mean ± SD. As for the experimental part: as §1, §2
The target of data set [4] is T1, EGFR TK (Homo sapiens, UniProt P00533).
T1 construct: purchased Cell Signaling Technology
T1 sequence (P00533 25-1210): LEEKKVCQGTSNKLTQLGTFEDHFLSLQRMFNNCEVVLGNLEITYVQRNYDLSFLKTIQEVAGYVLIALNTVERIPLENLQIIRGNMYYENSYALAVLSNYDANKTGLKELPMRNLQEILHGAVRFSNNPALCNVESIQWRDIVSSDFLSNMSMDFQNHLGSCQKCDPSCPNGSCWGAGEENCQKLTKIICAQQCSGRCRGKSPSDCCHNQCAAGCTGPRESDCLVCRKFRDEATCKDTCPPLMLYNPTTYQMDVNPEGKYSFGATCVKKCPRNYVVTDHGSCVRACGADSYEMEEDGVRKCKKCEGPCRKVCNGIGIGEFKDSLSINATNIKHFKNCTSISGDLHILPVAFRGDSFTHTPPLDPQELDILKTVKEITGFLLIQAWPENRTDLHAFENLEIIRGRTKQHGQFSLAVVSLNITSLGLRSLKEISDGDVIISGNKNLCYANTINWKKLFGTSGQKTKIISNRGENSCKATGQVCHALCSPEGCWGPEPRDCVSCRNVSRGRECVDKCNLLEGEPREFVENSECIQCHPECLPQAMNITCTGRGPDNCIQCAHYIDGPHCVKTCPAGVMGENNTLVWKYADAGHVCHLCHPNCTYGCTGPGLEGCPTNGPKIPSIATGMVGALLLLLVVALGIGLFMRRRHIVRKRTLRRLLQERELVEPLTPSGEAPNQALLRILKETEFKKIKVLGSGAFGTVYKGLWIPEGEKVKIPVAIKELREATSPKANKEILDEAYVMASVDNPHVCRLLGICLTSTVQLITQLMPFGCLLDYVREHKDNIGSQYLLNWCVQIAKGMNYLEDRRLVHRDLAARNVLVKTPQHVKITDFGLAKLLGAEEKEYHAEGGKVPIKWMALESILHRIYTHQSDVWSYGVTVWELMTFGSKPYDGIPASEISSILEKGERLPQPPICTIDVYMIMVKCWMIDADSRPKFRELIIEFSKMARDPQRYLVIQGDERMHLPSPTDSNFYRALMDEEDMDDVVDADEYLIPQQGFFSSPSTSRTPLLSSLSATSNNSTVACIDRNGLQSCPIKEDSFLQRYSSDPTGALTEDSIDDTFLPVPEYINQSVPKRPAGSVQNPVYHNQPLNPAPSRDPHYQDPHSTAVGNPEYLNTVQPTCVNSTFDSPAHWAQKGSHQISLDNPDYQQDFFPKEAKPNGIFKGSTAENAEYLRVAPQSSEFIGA
Description: EGFR inhibition assay (HTScan EGFR kinase assay kit). Type of data set: biochemical. The conditions noted are these: averages of three independent experiments; compounds tested at concentration of 10 μM; 400 μM ATP. As for the experimental part:
As the designed compounds had good antiproliferative activity, in vitro EGFR inhibition capability was firstly evaluated for the target cytotoxic derivatives to see whether their cytotoxicity was mediated by kinase inhibition. […]. EGFR kinase activity was assessed using HTScan EGFR kinase assay kits (Cell Signaling Technology, Danvers, MA, USA). The experiments were performed according to the manufacturer’s instructions. […] Phosphorylated substrate was captured with strapavidin-coated 96-well plates. The level of phosphorylation was monitored by anti-phosphotyrosine and europium-labeled secondary antibodies (DELFIA, Perkin-Elmer, Akron, OH, USA). The enhancement solution was added at the end of the assay and enzyme activity was measured in a Victor II 1420 microplate reader (Wallac, Boston, MA, USA) at […].

The test system of data set [5] is HCT-116, MCF-7 and HepG-2. Description: MTT cytotoxicity, statements across the three cell lines. In kind it is cell-based, human. The conditions noted are these: for anticancer activity in words: three cell lines, MTT; for IC50: Homo sapiens, range over HCT-116, MCF-7, HepG-2, read-out: IC50 against the three cell lines (range given). The procedure:
as §1, §2

The target of data set [6] is T2, tubulin (Homo sapiens, UniProt P07437+P68363).
T2 construct: The HCT-116 cell line was obtained from the American Type Culture Collection; endogenous in cells; host or cells: HCT-116
T2 sequence (P07437 whole entry): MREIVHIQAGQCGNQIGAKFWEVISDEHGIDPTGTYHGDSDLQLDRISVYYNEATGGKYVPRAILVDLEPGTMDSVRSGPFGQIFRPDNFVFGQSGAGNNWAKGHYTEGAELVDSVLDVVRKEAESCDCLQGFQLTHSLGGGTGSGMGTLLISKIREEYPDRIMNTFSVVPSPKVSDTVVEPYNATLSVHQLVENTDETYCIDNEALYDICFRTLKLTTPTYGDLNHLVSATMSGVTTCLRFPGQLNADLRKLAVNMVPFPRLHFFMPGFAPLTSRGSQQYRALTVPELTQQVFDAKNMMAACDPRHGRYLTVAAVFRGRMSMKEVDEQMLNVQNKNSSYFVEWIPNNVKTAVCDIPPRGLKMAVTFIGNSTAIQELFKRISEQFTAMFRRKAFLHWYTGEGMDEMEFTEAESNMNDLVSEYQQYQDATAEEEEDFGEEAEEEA
T2 sequence (P68363 whole entry): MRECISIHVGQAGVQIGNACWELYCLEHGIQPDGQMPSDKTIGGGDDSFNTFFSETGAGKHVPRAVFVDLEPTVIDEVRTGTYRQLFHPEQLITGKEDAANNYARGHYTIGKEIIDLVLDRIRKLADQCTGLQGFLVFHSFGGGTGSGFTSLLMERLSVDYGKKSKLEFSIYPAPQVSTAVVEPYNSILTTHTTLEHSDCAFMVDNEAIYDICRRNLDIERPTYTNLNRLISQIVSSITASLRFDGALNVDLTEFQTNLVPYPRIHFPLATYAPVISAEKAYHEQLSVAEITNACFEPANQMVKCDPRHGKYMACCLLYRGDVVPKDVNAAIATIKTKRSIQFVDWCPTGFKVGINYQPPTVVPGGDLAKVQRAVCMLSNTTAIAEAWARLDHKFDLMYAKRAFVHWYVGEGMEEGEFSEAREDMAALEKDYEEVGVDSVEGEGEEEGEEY
Description: Tubulin polymerization / ELISA for Tubulin Beta (TUBb) in HCT-116 cells. Type of data set: cell-based. The procedure:
Tubulin is the principal component of the eukaryotic cytoskeleton and participates in several crucial cellular processes, including cell replication.
Plate cells (cells density 1.2–1.8 × 10^3 cells/well) in a volume of […] complete growth medium and […] of the tested compound per well in a 96-well plate for 18–24 h before the enzyme assay for tubulin. […] Standards or samples are then added to the appropriate microtiter plate wells with a biotin-conjugated antibody specific to TUBb. Next, avidin conjugated to horseradish peroxidase (HRP) is added to each microplate well and incubated. […] The enzyme-substrate reaction is terminated by the addition of sulphuric acid solution and the color change is measured spectrophotometrically at a wavelength of 450 ± 10 nm. The concentration of TUBb in the samples is then determined by comparing the O.D. of the samples to the standard curve.
Background: ELISA stands for enzyme-linked immunosorbent assay.

Where [7] appears, read: averages of two independent experiments, read-out: Tubulin Polymerization (IC50 µM).

Values joined by “and” are separate entries in the source; they are usually repeats but may differ in a detail not shown here. Equal entries are not always repeated. Where two headings read alike, the source gives them in different places.

`CCc1nnc2c(Cl)nc3ccccc3n12` [Compound 5, 4-Chloro-1-ethyl-[1,2,4]triazolo[4,3-a]quinoxaline] came in with a melting point of 158 to 160 °C. For the same molecule, the IC50 in data set [1] came to 322 ± 0.15 µM. Also, in data set [2], the IC50 was 246 ± 0.13 µM. This molecule registered an IC50 in data set [3] of 236 ± 0.1 µM.

Molecule `CCc1nnc2c(Nc3ccc(C(C)=O)cc3)nc3ccccc3n12` [Compound 6, 1-(4-((1-ethyl-[1,2,4]triazolo[4,3-a]quinoxalin-4-yl)amino)phenyl)ethan-1-one] displayed a melting point of 235 to 237 °C. In data set [1], this molecule yielded an IC50 of 446 ± 0.2 µM. The same molecule gave an IC50 in data set [2] of 410 ± 0.25 µM. For the same molecule, the IC50 in data set [3] was determined as 411 ± 0.21 µM.

In turn, `CCc1nnc2c(Nc3ccc(C(=O)/C=C/c4ccccc4)cc3)nc3ccccc3n12` [Compound 7a, (E)-1-(4-((1-Ethyl-[1,2,4]triazolo[4,3-a]quinoxalin-4-yl)amino)phenyl)-3-phenylprop-2-en-1-one] came in with a melting point of 260 to 262 °C. This molecule registered an IC50 in data set [1] of 105.2 ± 0.5 µM. The same molecule yielded an IC50 in data set [4] of 0.661 ± 0.00011 µM. Also, the “anticancer activity in words” value in data set [5] was “did not show significant activity”. The molecule also showed an IC50 in data set [2] of 58.92 ± 0.32 µM. Also, the IC50 in data set [6] (setting [7]) came to 77.1 ± 0.21 µM. The molecule further gave an IC50 in data set [3] of 57.49 ± 0.29 µM.

`CCc1nnc2c(Nc3ccc(C(=O)/C=C/c4ccccc4OC)cc3)nc3ccccc3n12` [Compound 7b, (E)-1-(4-((1-Ethyl-[1,2,4]triazolo[4,3-a]quinoxalin-4-yl)amino)phenyl)-3-(2-methoxyphenyl)prop-2-en-1-one] showed a melting point of 264 to 266 °C. The molecule also displayed an IC50 in data set [1] of 30.72 ± 0.12 µM. Besides, the IC50 in data set [4] was 0.127 to 0.136 µM and 0.127 µM. In addition, the IC50 in data set [5] lay in the range of 1.65 to 34.3 µM. In data set [2], this molecule had an IC50 of 24.04 ± 0.12 µM. Further, the IC50 in data set [6] (setting [7]) turned out to be 18.1 ± 0.3 µM. In data set [3], this molecule had an IC50 of 25.6 ± 0.03 µM.

Regarding `CCc1nnc2c(Nc3ccc(C(=O)/C=C/c4ccccc4O)cc3)nc3ccccc3n12` [Compound 7c, (E)-1-(4-((1-Ethyl-[1,2,4]triazolo[4,3-a]quinoxalin-4-yl)amino)phenyl)-3-(2-hydroxyphenyl)prop-2-en-1-one], the melting point was 261 to 263 °C. For the same molecule, the IC50 in data set [1] was found to be 17.32 ± 0.12 µM. Moreover, the IC50 in data set [4] was 0.127 to 0.136 µM and 0.136 µM. Besides, the IC50 in data set [2] stood at 22.17 ± 0.11 µM. The IC50 in data set [6] (setting [7]) was 43.4 ± 0.01 µM. For the same molecule, in data set [3], the IC50 turned out to be 19.8 ± 0.23 µM.

`CCc1nnc2c(Nc3ccc(C(=O)/C=C/c4ccc(C)cc4)cc3)nc3ccccc3n12` [Compound 7d, (E)-1-(4-((1-Ethyl-[1,2,4]triazolo[4,3-a]quinoxalin-4-yl)amino)phenyl)-3-(p-tolyl)prop-2-en-1-one] displayed a melting point of 247 to 249 °C. Further, the IC50 in data set [1] is above 100 µM. The same molecule gave an IC50 in data set [4] above 100 µM. Moreover, the “anticancer activity in words” value in data set [5] was “low activity”. This molecule registered an IC50 in data set [2] of 93.4 ± 0.14 µM. Further, the IC50 in data set [3] is above 100 µM.

In the case of `CCc1nnc2c(Nc3ccc(C(=O)/C=C/c4ccc(OC)cc4)cc3)nc3ccccc3n12` [Compound 7e, (E)-1-(4-((1-Ethyl-[1,2,4]triazolo[4,3-a]quinoxalin-4-yl)amino)phenyl)-3-(4-methoxyphenyl)prop-2-en-1-one], the IC50 in data set [1] is 34.28 ± 0.14 µM; in data set [4], 0.083 ± 0.04 µM; in data set [5], 1.65 to 34.3 µM; in data set [2], 8.23 ± 0.25 µM; in data set [6] (setting [7]) it was 14.7 ± 0.11 µM; in data set [3] it was 9.57 ± 0.11 µM.

In turn, `CCc1nnc2c(Nc3ccc(C(=O)/C=C/c4ccc(O)cc4)cc3)nc3ccccc3n12` [Compound 7f, (E)-1-(4-((1-Ethyl-[1,2,4]triazolo[4,3-a]quinoxalin-4-yl)amino)phenyl)-3-(4-hydroxyphenyl)prop-2-en-1-one] gave a melting point of 253 to 255 °C. In data set [1], the IC50 is above 100 µM. Further, the IC50 in data set [4] is above 50 µM. Further, the IC50 in data set [2] was above 100 µM. In addition, the IC50 in data set [6] (setting [7]) was above 100 µM. In data set [3], this molecule yielded an IC50 of 18.1 ± 0.15 µM.

For the molecule `CCc1nnc2c(Nc3ccc(C(=O)/C=C/c4cc(OC)c(OC)c(OC)c4)cc3)nc3ccccc3n12` [Compound 7g, (E)-1-(4-((1-Ethyl-[1,2,4]triazolo[4,3-a]quinoxalin-4-yl)amino)phenyl)-3-(3,4,5-trimethoxyphenyl)prop-2-en-1-one], the IC50 is 8.58 ± 0.06 µM in data set [1]; 0.039 µM in data set [4]; 1.65 to 34.3 µM in data set [5]; 1.65 ± 0.13 µM in data set [2]; 8.4 µM in data set [6] (abstract text, read-out: antitubulin polymerization activity (abstract)); 8.84 ± 0.02 µM in data set [6] (setting [7]). Further, in data set [3], the IC50 was 3.61 ± 0.18 µM.

For `CCc1nnc2c(Nc3ccc(C(=O)/C=C/c4ccc([N+](=O)[O-])cc4)cc3)nc3ccccc3n12` [Compound 7h, (E)-1-(4-((1-Ethyl-[1,2,4]triazolo[4,3-a]quinoxalin-4-yl)amino)phenyl)-3-(4-nitrophenyl)prop-2-en-1-one], the melting point fell in the range of 260 to 262 °C. Besides, the IC50 in data set [1] was above 100 µM. In data set [4], this molecule showed an IC50 above 100 µM. This molecule also had an IC50 in data set [2] above 100 µM. Further, the IC50 in data set [6] (setting [7]) was above 100 µM. This molecule also gave an IC50 in data set [3] above 100 µM.

In turn, `CCc1nnc2c(Nc3ccc(C(=O)/C=C/c4ccc(Cl)cc4)cc3)nc3ccccc3n12` [Compound 7i, (E)-3-(4-Chlorophenyl)-1-(4-((1-ethyl-[1,2,4]triazolo[4,3-a]quinoxalin-4-yl)amino)phenyl)prop-2-en-1-one] returned a melting point of 255 to 257 °C. This molecule showed an IC50 in data set [1] above 100 µM. The IC50 in data set [4] was above 100 µM. This molecule came in with an IC50 in data set [2] above 100 µM. In addition, the IC50 in data set [6] (setting [7]) is above 100 µM. The molecule also yielded an IC50 in data set [3] above 100 µM.

With `CCc1nnc2c(Nc3ccc(C(=O)/C=C/c4ccc(Cl)cc4Cl)cc3)nc3ccccc3n12` [Compound 7j, (E)-3-(2,4-Dichlorophenyl)-1-(4-((1-ethyl-[1,2,4]triazolo[4,3-a]quinoxalin-4-yl)amino)phenyl)prop-2-en-1-one], the melting point was 250 to 252 °C. The molecule further came in with an IC50 in data set [1] above 100 µM. For the same molecule, in data set [4], the IC50 was above 100 µM. Besides, the IC50 in data set [2] was above 100 µM. In addition, the IC50 in data set [6] (setting [7]) was above 100 µM. This molecule also gave an IC50 in data set [3] above 100 µM.

`CCc1nnc2c(Nc3ccc(C(=O)/C=C/c4c(Cl)cccc4Cl)cc3)nc3ccccc3n12` [Compound 7k, (E)-3-(2,6-Dichlorophenyl)-1-(4-((1-ethyl-[1,2,4]triazolo[4,3-a]quinoxalin-4-yl)amino)phenyl)prop-2-en-1-one]: the melting point lay within 250 to 252 °C. In data set [1], this molecule registered an IC50 above 100 µM. The IC50 in data set [4] was above 100 µM. In data set [2], this molecule gave an IC50 above 100 µM. Further, in data set [6] (setting [7]), the IC50 is above 100 µM. In addition, the IC50 in data set [3] came out at 19.7 ± 0.25 µM.

Regarding `COc1cccc2c1C(=O)c1c(O)c3c(c(O)c1C2=O)C[C@@](O)(C(=O)CO)C[C@@H]3O[C@H]1C[C@H](N)[C@H](O)[C@H](C)O1` [Doxorubicin, reference compound], the values for the IC50 in data set [1], in data set [2] and in data set [3] were 0.22 ± 0.01 µM, 0.27 ± 0.08 µM and 1.55 ± 0.03 µM, respectively.

What is called melting point is the temperature, or range, at which the solid turns liquid.

Values taken from article PMC5943945, “Design, Synthesis and Cytotoxic Evaluation of Novel Chalcone Derivatives Bearing Triazolo[4,3-a]-quinoxaline Moieties as Potent Anticancer Agents with Dual EGFR Kinase and Tubulin Polymerization Inhibitory Effects” (Molecules : A Journal of Synthetic Chemistry and Natural …, 2017).
